# Reference: patent US11926602B1, “4-amino-5-(4-fluoro-3-phenoxyphenyl)-4H-1,2,4-triazole-3-thiol derivatives as antifungal agents” (KING FAISAL UNIVERSITY, priority 2023, dated 2024)
# Tests used:
# [1] = test system: Candida parapsilosis (ATCC RCMB 05064); assay: Antifungal microdilution assay, MIC against Candida parapsilosis; assay type: cell-based; details: Lodderomyces parapsilosis, RCMB05064, 0.49-125 μg/mL tested over 48 h, read-out: Minimum inhibitory concentration C. parapsilosis
# Description: (§1) The calculation of the minimum inhibitory concentrations (MICs) for the tested compounds was done against Candida parapsilosis (ATCC RCMB 05064); Candida albicans (ATCC RCMB 05064): Candida tropicalis (ATCC RCMB 05064); Aspergillus niger (ATCC RCMB 05064); Trichophyton rubrum (ATCC RCMB 05064). Microdilution assay was used to evaluate the tested compounds (2, 2a-2h) for their antifungal activity (Anaissie, E. J.; Paetznick, V. L.; Ensign, L. G.; Espinel-Ingroff, A.; Galgiani, J. N.; Hitchcock, C. A.; LaRocco. M.; Patterson. T.; Pfaller, M. A.; Rex, J. H.; et al. Microdilution antifungal susceptibility testing of Candida albicans and Cryptococcus neoformans with and without agitation: An eight-center collaborative study. Antimicrob. Agents Chemother. 1996, 40, 2387-2391). Different concentrations were tested from each compound; 0.49, 0.98, 1.95, 3.9, 7.81, 15.63, 31.25, 62.5, and 125 μg/mL over 48 h.
# (§2) The observed antifungal activity of the present 4-amino-5-(4-fluoro-3-phenoxyphenyl)-4H-1,2,4-triazole-3-thiol (2) and its derivatives (2a-h) against various fungi are summarized below in Table 2.
# [2] = test system: Candida albicans (ATCC RCMB 05064); assay: Antifungal microdilution assay, MIC against Candida albicans; assay type: cell-based; details: RCMB05064, 0.49-125 μg/mL tested over 48 h, read-out: Minimum inhibitory concentration C. albicans
# Description: as §1, §2
# [3] = test system: Candida tropicalis (ATCC RCMB 05064); assay: Antifungal microdilution assay, MIC against Candida tropicalis; assay type: cell-based; details: RCMB05064, 0.49-125 μg/mL tested over 48 h, read-out: Minimum inhibitory concentration C. tropicalis
# Description: as §1, §2
# [4] = test system: Aspergillus niger (ATCC RCMB 05064); assay: Antifungal microdilution assay, MIC against Aspergillus niger; assay type: cell-based; details: RCMB05064, 0.49-125 μg/mL tested over 48 h, read-out: Minimum inhibitory concentration A. niger
# Description: as §1, §2
# [5] = test system: Trichophyton rubrum (ATCC RCMB 05064); assay: Antifungal microdilution assay, MIC against Trichophyton rubrum; assay type: cell-based; details: RCMB05064, 0.49-125 μg/mL tested over 48 h, read-out: Minimum inhibitory concentration T. rubrum
# Description: as §1, §2
Structure (SMILES),MIC [1] [µg/mL],MIC [2] [µg/mL],MIC [3] [µg/mL],MIC [4] [µg/mL],MIC [5] [µg/mL],melting point [°C]
"CSc1nnc(-c2ccc(F)c(Oc3ccccc3)c2)n1N [Compound 2f, 3-(4-Fluoro-3-phenoxyphenyl)-5-(methylthio)-4H-1,2,4-triazol-4-amine]",3.9,7.81,7.81,3.9,7.81,152
"OC(Cn1cncn1)(Cn1cncn1)c1ccc(F)cc1F [Fluconazole, reference compound]",0.49,0.49,0.98,0.49,1.95,
Fc1ccc(/C=N/n2c(-c3ccc(F)c(Oc4ccccc4)c3)n[nH]c2=S)cc1 [Compound 2d],7.81,7.81,15.6,7.81,15.6,172
Fc1ccc(-c2n[nH]c(=S)n2/N=C/c2ccccc2)cc1Oc1ccccc1 [Compound 2a],0.98,1.95,0.98,1.95,1.95,189
"C=CCSc1nnc(-c2ccc(F)c(Oc3ccccc3)c2)n1N [Compound 2h, 3-(Allylthio)-5-(4-fluoro-3-phenoxyphenyl)-4H-1,2,4-triazol-4-amine]",0.49,0.98,0.49,0.98,1.95,128

# Further compounds by falling MIC [1], results first:
MIC [1] [µg/mL],MIC [2] [µg/mL],MIC [3] [µg/mL],MIC [4] [µg/mL],MIC [5] [µg/mL],melting point [°C],Structure (SMILES)
15.6,31.2,62.5,31.2,62.5,174,Fc1ccc(-c2n[nH]c(=S)n2/N=C/c2ccc(Cl)cc2)cc1Oc1ccccc1 [Compound 2b]
15.6,15.6,32.2,15.6,32.2,146,Fc1ccc(-c2nn(CN3CCOCC3)c(=S)n2/N=C/c2ccc(Cl)cc2)cc1Oc1ccccc1 [Compound 2c]
1.95,3.9,3.9,7.81,3.9,205 to 207,"Nn1c(S)nnc1-c1ccc(F)c(Oc2ccccc2)c1 [Compound 2, 4-amino-5-(4-fluoro-3-phenoxyphenyl)-4H-1,2,4-triazole-3-thiol]"
1.95,1.95,1.95,3.9,7.81,132,Fc1ccc(-c2n[nH]c(=S)n2/N=C/c2cccc(Oc3ccccc3)c2)cc1Oc1ccccc1 [Compound 2e]
0.49,0.49,0.49,0.98,0.98,136,"Nn1c(SCc2cnc(Cl)s2)nnc1-c1ccc(F)c(Oc2ccccc2)c1 [Compound 2g, 3-(((2-Chlorothiazol-5-yl)methyl)thio)-5-(4-fluoro-3-phenoxyphenyl)-4H-1,2,4-triazol-4-amine]"
